Measurements as given in patent US20220402883A1, “COMPOUNDS AND METHODS FOR MODULATING RNA FUNCTION” (Arrakis Therapeutics, Inc., priority 2016, published 2022).
“Also recorded” adds a separate entry of the source.

Assays:
[1] = test system: Split3WJ.1_up_5IB+Split3WJ.1_down_3FAM (trans 3WJ as 1:1 mix); test: Fluorescence quenching binding assay (FAM / Iowa Black); settings: two concentration points
Experimental: (§1) This assay will be used to test binding of compounds for RNA three way junction (such as a 38 nt construct). This is a fluorescence quenching assay utilizing FAM as fluorescence tag and Iowa Black as quencher. Tags are attached at the 3′ and 5′ end, respectively. Stable formation of MW upon compound binding would lead to quenching of the FAM fluorescence due to close proximity of the Iowa Black tag. Assay readout: FAM (485-520 nm) Fluorescence Intensity.
(§2) Assay sample buffer used: 10 mM CacoK pH 7.2, 30 mM NaCl. Buffer preparation in Dnase/Rnase Free distilled water (Gibco Life Technologies).
(§3) Dilute the RNA 1:10 (final 10 μM) in Assay Buffer.
(§4) Heat up the diluted RNA up to 90° C. for 5 min (sealed Eppendorf Tube).
(§5) Cool down the RNA probe slowly to RT.
(§6) Dilute the compounds to 800 μM in DMSO (Assay: 8 μM).
(§7) Final concentrations in the sample: 1-10 μM RNA, 8 μM compound, 1% DMSO
(§8) Pipet 25 μL Sample Solution into Greiner cat #784076, black, 384
(§9) Measure the 96 plate with the LightCycler480 (Channel: 485/520 nm).
(§10) The fluorescence quenching experiment was repeated for compounds Ark0000013 and Ark0000014 to measure binding with:
B) Split3WJ.1_up_5IB+Split3WJ.1_down_3FAM (trans 3WJ as 1:1 mix)
(§11) Both cmpds were tested at two concentration points in the fluorescence quenching assays to assess effect upon RNA constructs utilized in the study. […]

[2] = test system: Split3WJ.2 up_5IB+Split3WJ.2_down_3FAM (trans 3WJ as 1:1 mix); test: as above; settings: two concentration points
Experimental: as §1, §2, §3, §4, §5, §6, §7, §8, §9, §10
C) Split3WJ.2 up_5IB+Split3WJ.2_down_3FAM (trans 3WJ as 1:1 mix)
as §11

[3] = test system: RNA3WJ_0.0.0_5IB_3FAM (3WJ_0.0.0_5IB_3FAM RNA construct); test: Thermal shift binding assay
Method in brief: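 A 3WJ RNA construct, 5′-Iowa Black/3′-FAM labelled and annealed (90° C. for 5 min, slow cooling), was tested at 1 μM with 8 μM compound, 1% DMSO, in 10 mM CacoK pH 7.2, 30 mM NaCl. FAM fluorescence (480/510 nm) monitored from 41 to 91° C. at 0.1° C./sec. Compound effect on 3WJ stability taken from Tm shift of melting curves.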

[4] = test system: RNA3WJ_3.0.0_5IB_3FAM; test: Thermal shift binding assay; settings: 1 μM RNA, 8 μM compound, 10 mM CacoK pH 7.2, 30 mM NaCl
[5] = test system: RNA3WJ_1.0.0_5IB_3FAM (cis 3WJ with one unpaired nucleotide); test: Thermal shift binding assay; settings: 1 μM RNA, 8 μM compound
Text: (§12) Purpose: Test binding of compounds for RNA three way junction (for example, a construct of 38 nt). Thermal shift assay based on established fluorescence quenching assay utilizing FAM as fluorescence tag and Iowa Black as quencher. Tags were attached at the 3′ and 5′ end, respectively. Stable formation of 3WJ upon compound binding would lead to quenching of the FAM fluorescence due to close proximity of the Iowa Black tag. Thermal unfolding leads to increase of fluorescence emission. Assay readout: FAM (465-510 nm) Thermal Shift.
as §2, §3, §4, §5, §6
(§13) Final concentrations in the sample: 1 μM RNA, 8 μM compound, 1% DMSO
(§14) Pipet 20 μL Sample Solution into Roche, Light Cycler480 Multiwell Plate96, white, REF 04729692001.
(§15) Measure the 96 plate with the LightCycler480 (Channel: 480/510 nm; Temperature: 41-91° C.).
(§16) Analyse measurement-data with the MeltingCurveGenotyping Mode.
(§17) Settings: Acquisition mode: continuous; Ramp rate: 0.1° C./sec; Acquisition: 6° C.
(§18) Curves are fitted with raw and normalized data.
(§19) Melting curves analysis show melting temperature (Tm) of ˜51° C. Range of RNA concentrations was tested and assay window was determined (conc. range of 0.5-1 μM yields best results). The choice of buffer also affected the Tm. RNA constructs were tested under different buffer conditions (especially in presence of salt) in the thermal shift assay. […] CacoK with 30 mM salt at 1 μM RNA conc. was used to assess compound effects on 3WJ stability. […] These conditions were used for screening test compounds.
(§20) Compounds Ark0000013 and Ark0000014 were also tested in the thermal shift assay against three RNA 3WJ constructs, A) RNA3WJ_1.0.0_5IB_3FAM (cis 3WJ with one unpaired nucleotide); B) Split3WJ.1_up_5IB+Split3WJ.1_down_3FAM (trans 3WJ as 1:1 mix); and C) Split3WJ.2_up_5IB+Split3WJ.2_down_3FAM (trans 3WJ as 1:1 mix).

[6] = test system: Split3WJ.1_up_5IB+Split3WJ.1_down_3FAM (trans 3WJ as 1:1 mix; Split3WJ_1); test: Thermal shift binding assay; settings: 1 μM RNA, 8 μM compound, 10 mM CacoK pH 7.2, 30 mM NaCl
Text: as §12, §2, §3, §4, §5, §6, §13, §14, §15, §16, §17, §18, §19, §20

[7] = test system: Split3WJ.2_up_5IB+Split3WJ.2_down_3FAM (trans 3WJ as 1:1 mix; Split3WJ_2); test: Thermal shift binding assay; settings: 1 μM RNA, 8 μM compound, 10 mM CacoK pH 7.2, 30 mM NaCl
Text: as §12, §2, §3, §4, §5, §6, §13, §14, §15, §16, §17, §18, §19, §20

[8] = test system: RNA3WJ_2.0.0_5IB_3FAM; test: Thermal shift binding assay; settings: 1 μM RNA, 8 μM compound, 10 mM CacoK pH 7.2, 30 mM NaCl
Text: as §12, §2, §3, §4, §5, §6, §13, §14, §15, §16, §17, §18, §19

[9] = 1 μM RNA, 8 μM compound, 10 mM CacoK pH 7.2, 30 mM NaCl

Melting temp + cmpd [3, 9]: 84.1 °C
Temp. Shift [3, 9]: 24.2 °C
Melt. Temp. with cmpd ([3]; RNA sequence 3WJ_0.0.0_5IB_FAM, melting temperature in presence of compound): 84.1 °C
Shift melt. Temp. ([3]; RNA sequence 3WJ_0.0.0_5IB_FAM, with cmpd minus without cmpd): +24.2 °C
Melting temp + cmpd [4]: 83.7 °C
Temp. Shift [4]: 21.7 °C
Melting temp + cmpd ([5]; 10 mM CacoK pH 7.2, 30 mM NaCl): 87.0 °C
Temp. Shift ([5]; 10 mM CacoK pH 7.2, 30 mM NaCl): 21.4 °C
Melting temp + cmpd [6]: 58.2 °C
Temp. Shift [6]: ~21 °C
Temp. Shift ([6]; listed as Ark0000013): 20.4 °C
Melting temp + cmpd [7]: 56.9 °C
Temp. Shift [7]: ~13 °C
Temp. Shift ([7]; listed as Ark0000013): 12.2 °C
Melting temp + cmpd [8]: 84.3 °C
Temp. Shift [8]: 22.1 °C
Structure (SMILES): CN(CCCN)CCCNC(=O)c1ccc2c(c1)C1c3cc(C(=O)NCCCN(C)CCCN)ccc3C2c2ccc(C(=O)NCCCN(C)CCCN)cc21 [Ark000013, N^2,N^7,N^15-tris(3-((3-aminopropyl)(methyl)amino)propyl)-9,10-dihydro-9,10-[1,2]benzenoanthracene-2,7,15-tricarboxamide]
fluorescence quenching effect (FAM fluorescence signal) [1]: significant concentration dependent effect
fluorescence quenching effect (FAM fluorescence signal) [2]: significant concentration dependent effect
effect in the melting curves (in words) [5]: significantly lower fluorescence signal; also recorded: no proper melting curve
